This note sets out measurements from US12365687B2 (Hoffmann-La Roche Inc., priority 2021, dated 2025).

SMILES strings stand for the structures.

Assay [1] addresses human GABAA α5β2γ1 receptor (Homo sapiens (Human), UniProt P31644+Q8N1C3). The assay is described as follows: Radioligand binding assay for γ1-containing GABAA subtypes, [3H]RO7239181 competition (α5β2γ1).
Assay [2] addresses human GABAA α2β2γ1 receptor (Homo sapiens (Human), UniProt P47869+Q8N1C3). The assay is described as follows: Radioligand binding assay for γ1-containing GABAA subtypes, [3H]RO7239181 competition (α2β2γ1).
In assay [3] the target is human GABAA α1β3γ2 receptor (Homo sapiens (Human), UniProt P14867+P18507). The assay is described as follows: Radioligand binding assay for γ2-containing GABAA subtypes, [3H]Flumazenil competition (α1β3γ2). As to conditions: for γ2/γ1 Selectivity Ratio: Ki α1β3γ2 (nM)/Ki α2β2γ1 (nM); for LogSel: Log[Ki α1β3γ2 (nM)/Ki α2β2γ1 (nM)].
Assay [4] addresses α2β2γ1 GABAA receptor subtype (Homo sapiens (Human), UniProt P47869+Q8N1C3). Kind of assay: Two-electrode voltage clamp electrophysiology in Xenopus oocytes expressing GABAA receptors (modulation of GABA EC20 current). The class given is cell-based. As to conditions: for Efficacy (GABA)%: % modulation of GABA EC20 = 100*(Fold increase-1), α2β2γ1 oocytes, compound at approx. 30-fold Ki; for Fold increase h-GABA-A α2β2γ1 oocyte @ 30-fold Ki: Xenopus oocytes expressing α2β2γ1, compound at approx. 30-fold its Ki α2β2γ1, GABA EC20 current. An outline of the steps:
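Each concentration was tested on ≥3 oocytes held at −80 mV at room temperature, recorded 3-5 days post-injection. A control and a test response to EC20 GABA (1.5 min each) were superimposed and their point-by-point ratio taken. Peak ratio reported as % modulation of GABA EC20 = 100×(fold increase−1).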

[5] abbreviates: Ki h-GABAA α2β2γ1, [3H]RO7239181 competition binding, human GABAA α2β2γ1.
[6] abbreviates: Ki h-GABAA α2β2γ1, displacement of [3H]RO7239181, membranes of HEK293F cells expressing human receptors, means of two determinations.

Turning to `Cc1nc2n(n1)-c1ccc(Cl)c(Cl)c1C(c1ncccc1F)=N[C@H]2C` [Example 84, (4S)-7,8-dichloro-6-(3-fluoro-2-pyridyl)-2,4-dimethyl-4H-[1,2,4]triazolo[1,5-a][1,4]benzodiazepine], affinity in assay [1] was put at a Ki of 2.8 nM. The Ki in assay [2] (setting [5]) came to 28.4 nM. The molecule also yielded a Ki in assay [2] (setting [6]) of 28.4 nM. Besides, in assay [3], the Ki came out at 977 nM, the “γ2/γ1 Selectivity Ratio” value is listed as 34.4 and the LogSel is on record as 1.54. Moreover, in assay [4], the “Efficacy (GABA)%” value is reported as 175% and the “Fold increase h-GABA-A α2β2γ1 oocyte @ 30-fold Ki” value stood at 2.75.
Turning to `CCOC1CN(C(=O)c2nc3n(n2)-c2ccc(Cl)c(Cl)c2C(c2ncccc2F)=N[C@H]3C)C1` [Example 86, (3-ethoxyazetidin-1-yl)-[(4S)-7,8-dichloro-6-(3-fluoro-2-pyridyl)-4-methyl-4H-[1,2,4]triazolo[1,5-a][1,4]benzodiazepin-2-yl]methanone], the Ki in assay [1] stood at 6.13 nM; in assay [2] (setting [5]), 37 nM; in assay [2] (setting [6]), 37 nM; in assay [3] it was 2050 nM. For the same molecule, the “γ2/γ1 Selectivity Ratio” value in assay [3] is recorded as 55.4. The molecule further had a LogSel in assay [3] of 1.74. Further, the “Efficacy (GABA)%” value in assay [4] was 97%. Also, the “Fold increase h-GABA-A α2β2γ1 oocyte @ 30-fold Ki” value in assay [4] came to 1.97.
In turn, `CC1CN(C(=O)c2nc3n(n2)-c2ccc(Cl)c(Cl)c2C(c2ncccc2F)=N[C@H]3C)C1` [Example 87, [(4S)-7,8-dichloro-6-(3-fluoro-2-pyridyl)-4-methyl-4H-[1,2,4]triazolo[1,5-a][1,4]benzodiazepin-2-yl]-(3-methylazetidin-1-yl)methanone] came in with a Ki in assay [1] of 5.5 nM. The Ki in assay [2] (setting [5]) came out at 55.2 nM. Also, the Ki in assay [2] (setting [6]) worked out at 55.2 nM. Besides, in assay [3], the Ki stood at 3290 nM, the “γ2/γ1 Selectivity Ratio” value turned out to be 59.7 and the LogSel turned out to be 1.78. For the same molecule, in assay [4], the “Efficacy (GABA)%” value is reported as 84% and the “Fold increase h-GABA-A α2β2γ1 oocyte @ 30-fold Ki” value is 1.84.
`C[C@@H]1N=C(c2ncccc2F)c2c(ccc(Cl)c2Cl)-n2nc(C(=O)NC3CC3)nc21` [Example 88, (4S)-7,8-dichloro-N-cyclopropyl-6-(3-fluoro-2-pyridyl)-4-methyl-4H-[1,2,4]triazolo[1,5-a][1,4]benzodiazepine-2-carboxamide] had a Ki in assay [1] of 10.1 nM. The same molecule came in with a Ki in assay [2] (setting [5]) of 90.6 nM. In addition, affinity in assay [2] (setting [6]) was put at a Ki of 90.6 nM. In assay [3], the Ki stood at 2820 nM, the “γ2/γ1 Selectivity Ratio” value is given as 31.2 and the LogSel stood at 1.49. Moreover, in assay [4], the “Efficacy (GABA)%” value is 162% and the “Fold increase h-GABA-A α2β2γ1 oocyte @ 30-fold Ki” value is recorded as 2.62.
Molecule `CO[C@H]1CCN(C(=O)c2nc3n(n2)-c2ccc(Cl)c(Cl)c2C(c2ncccc2F)=N[C@H]3C)C1` [Example 89, [(4S)-7,8-dichloro-6-(3-fluoro-2-pyridyl)-4-methyl-4H-[1,2,4]triazolo[1,5-a][1,4]benzodiazepin-2-yl]-[(3S)-3-methoxypyrrolidin-1-yl]methanone] displayed a Ki in assay [1] of 6.15 nM. The Ki in assay [2] (setting [5]) is 69.7 nM. Further, the Ki in assay [2] (setting [6]) turned out to be 69.7 nM. In assay [3], the Ki is 6350 nM, the “γ2/γ1 Selectivity Ratio” value came to 91.2 and the LogSel is 1.96. In assay [4], the “Efficacy (GABA)%” value is given as 113% and the “Fold increase h-GABA-A α2β2γ1 oocyte @ 30-fold Ki” value turned out to be 2.13.
In assay [1], `C[C@@H]1N=C(c2ncccc2F)c2c(ccc(Cl)c2Cl)-n2nc(C(=O)N3CC(OC(F)F)C3)nc21` [Example 90, [(4S)-7,8-dichloro-6-(3-fluoro-2-pyridyl)-4-methyl-4H-[1,2,4]triazolo[1,5-a][1,4]benzodiazepin-2-yl]-[3-(difluoromethoxy)azetidin-1-yl]methanone] displayed an inhibitory constant (Ki) of 6.09 nM. In assay [2] (setting [5]), this molecule had a Ki of 21.8 nM. Moreover, the affinity in assay [2] (setting [6]), expressed as Ki, was 21.8 nM. For the same molecule, in assay [3], the Ki came to 4740 nM, the “γ2/γ1 Selectivity Ratio” value is on record as 217.2 and the LogSel was determined as 2.34. Also, in assay [4], the “Efficacy (GABA)%” value is on record as 104% and the “Fold increase h-GABA-A α2β2γ1 oocyte @ 30-fold Ki” value turned out to be 2.04.
For `COc1nc2n(n1)-c1ccc(Cl)c(Cl)c1C(c1c(F)cccc1F)=N[C@H]2C` [Example 91, (4S)-7,8-dichloro-6-(2,6-difluorophenyl)-2-methoxy-4-methyl-4H-[1,2,4]triazolo[1,5-a][1,4]benzodiazepine], affinity in assay [1] was put at a Ki of 1.5 nM. Also, the Ki in assay [2] (setting [5]) was 23.7 nM. The Ki in assay [2] (setting [6]) is 23.7 nM. For the same molecule, in assay [3], the Ki was 752 nM, the “γ2/γ1 Selectivity Ratio” value came to 31.7 and the LogSel is given as 1.50. In assay [4], the “Efficacy (GABA)%” value stood at 75% and the “Fold increase h-GABA-A α2β2γ1 oocyte @ 30-fold Ki” value stood at 1.75.
In assay [1], `C[C@@H]1N=C(c2c(F)cccc2F)c2c(ccc(Cl)c2Cl)-n2nc(OC3COC3)nc21` [Example 92, (4S)-7,8-dichloro-6-(2,6-difluorophenyl)-4-methyl-2-(oxetan-3-yloxy)-4H-[1,2,4]triazolo[1,5-a][1,4]benzodiazepine] registered a Ki of 4.45 nM. In addition, in assay [2] (setting [5]), the Ki worked out at 44.9 nM. Also, affinity in assay [2] (setting [6]) was put at a Ki of 44.9 nM. Besides, in assay [3], the Ki worked out at 3280 nM, the “γ2/γ1 Selectivity Ratio” value is given as 73.0 and the LogSel was 1.86. In addition, in assay [4], the “Efficacy (GABA)%” value worked out at 44% and the “Fold increase h-GABA-A α2β2γ1 oocyte @ 30-fold Ki” value is 1.44.
Take `C[C@@H]1N=C(c2c(F)cccc2F)c2c(ccc(Cl)c2Cl)-n2nc(C(=O)N3CC4(COC4)C3)nc21` [Example 93, [(4S)-7,8-dichloro-6-(2,6-difluorophenyl)-4-methyl-4H-[1,2,4]triazolo[1,5-a][1,4]benzodiazepin-2-yl]-(2-oxa-6-azaspiro[3.3]heptan-6-yl)methanone]: the Ki in assay [1] is 2.25 nM. Besides, the Ki in assay [2] (setting [5]) was found to be 3.3 nM. The same molecule came in with a Ki in assay [2] (setting [6]) of 3.3 nM. Also, in assay [3], the Ki came out at 1290 nM, the “γ2/γ1 Selectivity Ratio” value came out at 390.6 and the LogSel is on record as 2.59. Moreover, in assay [4], the “Efficacy (GABA)%” value was determined as 75% and the “Fold increase h-GABA-A α2β2γ1 oocyte @ 30-fold Ki” value is on record as 1.75.
In assay [1], `C[C@@H]1N=C(c2c(F)cccc2F)c2c(ccc(Cl)c2Cl)-n2nc(C(=O)N3CC4(CCO4)C3)nc21` [Example 94, [(4S)-7,8-dichloro-6-(2,6-difluorophenyl)-4-methyl-4H-[1,2,4]triazolo[1,5-a][1,4]benzodiazepin-2-yl]-(1-oxa-6-azaspiro[3.3]heptan-6-yl)methanone] came in with a Ki of 1.43 nM. In assay [2] (setting [5]), affinity was put at a Ki of 3.9 nM. In assay [2] (setting [6]), this molecule gave a Ki of 3.89 nM. Moreover, in assay [3], the Ki was found to be 586 nM, the “γ2/γ1 Selectivity Ratio” value was found to be 150.7 and the LogSel was determined as 2.18. Also, in assay [4], the “Efficacy (GABA)%” value amounted to 76% and the “Fold increase h-GABA-A α2β2γ1 oocyte @ 30-fold Ki” value was found to be 1.76.
Turning to `C[C@@H]1N=C(c2ncccc2F)c2c(ccc(Cl)c2Cl)-n2nc(C(=O)N3CC4(CCOCC4)C3)nc21` [Example 95, 7-oxa-2-azaspiro[3.5]nonan-2-yl-[(4S)-7,8-dichloro-6-(3-fluoro-2-pyridyl)-4-methyl-4H-[1,2,4]triazolo[1,5-a][1,4]benzodiazepin-2-yl]methanone], the inhibition constant (Ki) in assay [1] was found to be 20.2 nM. Further, the Ki in assay [2] (setting [5]) is 47.6 nM. The Ki in assay [2] (setting [6]) turned out to be 47.6 nM. In assay [3], the affinity corresponds to a Ki of 9440 nM, the “γ2/γ1 Selectivity Ratio” value is listed as 198.4 and the LogSel was determined as 2.30. Moreover, in assay [4], the “Efficacy (GABA)%” value worked out at 126% and the “Fold increase h-GABA-A α2β2γ1 oocyte @ 30-fold Ki” value is reported as 2.26.
`C[C@@H]1N=C(c2c(F)cccc2F)c2c(ccc(Cl)c2Cl)-n2nc(C(=O)N3CC4(CCCCO4)C3)nc21` [Example 96, [(4S)-7,8-dichloro-6-(2,6-difluorophenyl)-4-methyl-4H-[1,2,4]triazolo[1,5-a][1,4]benzodiazepin-2-yl]-(5-oxa-2-azaspiro[3.5]nonan-2-yl)methanone]: the Ki in assay [1] was determined as 2.65 nM. In addition, the Ki in assay [2] (setting [5]) amounted to 6.4 nM. Also, the Ki in assay [2] (setting [6]) turned out to be 6.42 nM. In addition, in assay [3], the Ki came out at 933 nM, the “γ2/γ1 Selectivity Ratio” value was determined as 145.4 and the LogSel worked out at 2.16. In addition, in assay [4], the “Efficacy (GABA)%” value was 52% and the “Fold increase h-GABA-A α2β2γ1 oocyte @ 30-fold Ki” value came out at 1.52.
In assay [1], `C[C@@H]1N=C(c2ncccc2F)c2c(ccc(Cl)c2Cl)-n2nc(C(=O)N3CC4(CCCO4)C3)nc21` [Example 97, [(4S)-7,8-dichloro-6-(3-fluoro-2-pyridyl)-4-methyl-4H-[1,2,4]triazolo[1,5-a][1,4]benzodiazepin-2-yl]-(5-oxa-2-azaspiro[3.4]octan-2-yl)methanone] displayed a Ki of 8.64 nM. Besides, the affinity in assay [2] (setting [5]), expressed as Ki, was 14.8 nM. This molecule yielded a Ki in assay [2] (setting [6]) of 14.8 nM. In assay [3], the Ki was 3590 nM, the “γ2/γ1 Selectivity Ratio” value is given as 242.0 and the LogSel was determined as 2.38. In assay [4], the “Efficacy (GABA)%” value was found to be 95% and the “Fold increase h-GABA-A α2β2γ1 oocyte @ 30-fold Ki” value came out at 1.95.
Consider `C[C@@H]1N=C(c2ncccc2F)c2c(ccc(Cl)c2Cl)-n2nc(C(=O)N3CC4(CCO4)C3)nc21` [Example 98, [(4S)-7,8-dichloro-6-(3-fluoro-2-pyridyl)-4-methyl-4H-[1,2,4]triazolo[1,5-a][1,4]benzodiazepin-2-yl]-(1-oxa-6-azaspiro[3.3]heptan-6-yl)methanone], for which the Ki in assay [1] is 29.8 nM. The molecule further displayed a Ki in assay [2] (setting [5]) of 81.7 nM. The same molecule had a Ki in assay [2] (setting [6]) of 81.8 nM. Moreover, in assay [3], the affinity corresponds to a Ki of 8110 nM, the “γ2/γ1 Selectivity Ratio” value came out at 99.2 and the LogSel was determined as 2.00. Moreover, in assay [4], the “Efficacy (GABA)%” value was determined as 158% and the “Fold increase h-GABA-A α2β2γ1 oocyte @ 30-fold Ki” value is listed as 2.58.
